According to EP0349681A1, “Methods for treating hydrocarbon recovery operations and industrial waters” (PETROLITE CORPORATION, priority 1988, dated 1990):

Tests used:
[1] = CO2 brine sparge test for sweet corrosive systems; settings: 50 ppm active component, 24 hour test, 3.5 hours precorrosion, by weight loss
Experimental: The C02 brine sparge test is a reliable, quick test to screen compounds as corrosion inhibitors in "sweet" corrosive systems. A laboratory brine solution is sparged with stirring with 99.9% grade C02 for about one hour before immersing cleaned and weighed corrosion coupons. A M-1010 Pair@ meter was used to monitor the corrosion rate of each test cell. After one to two hours the corrosion rate reached a "steady state", but a precorrosion period of 3.5 hours was used for consistency before the test inhibitor was added. The precorroding period in the […] brine solution is very important. This provides a precor- roded test surface thereby minimizing surface preparation variations and also provides at least a minimal corrosion product layer without inhibitor in it against which the test inhibitor must work. This step is important, because in the equipment, the inhibitor is only rarely used from day one and then it is used on rusted steel and not freshly sand-blasted surfaces.
The inhibitors were injected below the brine surface at 50 ppm based on the active component. The 24 hour test period was monitored with a M-1010 PAIR meter as a "back-up", but the corrosion rates and percent protection were determined by weight loss measurements.

Aerobes = assay: standard laboratory biocide screening, mixed culture; format: cell-based; settings: 24 hours exposure, Standard Plate Count, Difco Plate Count Agar, 35° C, read-out: Aerobes (% killed)
Experimental: (§1) The compound of Example 4 was tested for efficacy using a standard laboratory screening procedure. The compounds were tested against a mixed culture of aerobic and anaerobic bacteria, including sulfate reducers. The test medium consisted of aged artificial sea water with 0.1 gms/liter of nutrient broth added. The medium was purged with nitrogen to remove oxygen and inoculated with 10 mis/liter of a mixed culture of aerobic and anaerobic bacteria obtained from oilfield waters. Aliquots (50 ml) were dispensed into sterile, nitrogen-filled serum vials. Concentrations of the test compounds were prepared by adding the appropriate amount of a 5% solution of the compound to 50 mls of test medium. After 24 hours, exposure levels of aerobic, anaerobic and sulfate reducing bacteria were enumerated.

Anaerobes = assay: as above; format: cell-based; settings: 800 ppm, 24 hours exposure, extinction dilution in Difco Fluid Thioglycollate broth, 35° C
Experimental: as §1

Sulfate Reducers = assay: as above; format: cell-based; settings: 800 ppm, 24 hours exposure, extinction dilution in modified Sulfate API broth, 35° C
Experimental: as §1

| Compound | Percent Protect [1] | other results |
| --- | --- | --- |
| S=C(S)NCCCCCCN(CCCCCCNC(=S)S)C(=S)S [Example 6] | 96 |  |
| S=C(S)NCCNC(=S)S [Example 2] | 85 |  |
| CCCCCCCCN(CCCNC(=S)S)C(=S)S [Example 8] | 96 |  |
| S=C(S)NCCN(CCN(CCN(CCNC(=S)S)C(=S)S)C(=S)S)C(=S)S [Example 5] | 97 |  |
| S=C(S)NCCN(CCNC(=S)S)C(=S)S [Example 7] | 92 |  |
| S=C(S)NCCCCC(CCCNC(=S)S)CNC(=S)S (centres unmarked) [Example 4] | 99 | killing at 800 ppm (Aerobes): 99%; Surviving Bacteria/ml Anaerobes (Anaerobes): 10 mL⁻¹; Surviving Bacteria/ml Sulfate Reducers (Sulfate Reducers): 10 mL⁻¹ |
| CCCCN(CCCC)C(=S)S [Example 1] | 92 |  |
| S=C(S)NCCCN1CCN(CCCNC(=S)S)CC1 [Example 3] | 96 |  |
